Source: patent US20160367623A1, “AGONISTS OF GUANYLATE CYCLASE USEFUL FOR THE TREATMENT OF GASTROINTESTINAL DISORDERS, INFLAMMATION, CANCER AND OTHER DISORDERS” (priority 2015, published 2016)
Bridge positions count the residues as written; N and C are the ends. Ends that are not written are not given here.

Test system: patients with chronic idiopathic constipation (CIC)
Experiment: Second phase 3 CIC trial: change from baseline in stool consistency (BSFS)
Format: in vivo, human
[1] = 3 mg, Week 7, All Randomized (includes Duplicate Patients)
[2] = 3 mg, Week 7, ITT Population-Excluding Duplicate Patients
[3] = 3 mg, Week 8, All Randomized (includes Duplicate Patients)
[4] = 3 mg, Week 8, ITT Population-Excluding Duplicate Patients
[5] = 3 mg, Week 9, All Randomized (includes Duplicate Patients)
[6] = 3 mg, Week 9, ITT Population-Excluding Duplicate Patients
[7] = 3 mg, Week 10, All Randomized (includes Duplicate Patients)
[8] = 3 mg, Week 10, ITT Population-Excluding Duplicate Patients
[9] = 3 mg, Week 11, All Randomized (includes Duplicate Patients)
[10] = 3 mg, Week 11, ITT Population-Excluding Duplicate Patients
[11] = 3 mg, Week 12, All Randomized (includes Duplicate Patients)
[12] = 3 mg, Week 12, ITT Population-Excluding Duplicate Patients
[13] = 3 mg, overall average estimate across the 12-week treatment period, All Randomized (includes Duplicate Patients)
[14] = 3 mg, overall average estimate across the 12-week treatment period, ITT Population
[15] = 3 mg, overall average estimate across the 12-week treatment period, ITT Population-Excluding Duplicate Patients
[16] = 6 mg, Post-Treatment Week 13, All Randomized (includes Duplicate Patients)
[17] = 6 mg, Post-Treatment Week 13, ITT Population
[18] = 6 mg, Post-Treatment Week 13, ITT Population-Excluding Duplicate Patients
[19] = 6 mg, Post-Treatment Week 14, All Randomized (includes Duplicate Patients)
[20] = 6 mg, Post-Treatment Week 14, ITT Population

What does the source list for “Asn^1-Asp^2-Glu^3-Cys^4-Glu^5-Leu^6-Cys^7-Val^8-Asn^9-Val^10-Ala^11-Cys^12-Thr^13-Gly^14-Cys^15-Leu^16 (NDECELCVNVACTGCL; disulfide 4-12, 7-15) [Plecanatide, uroguanylin analogue, guanylate cyclase-C agonist; (C4:C12, C7:C15) bicycle peptide]”?
Change from Baseline in Stool Consistency, Difference from Placebo [1]: 0.60; Change from Baseline in Stool Consistency, LS Mean (SE) [1]: 1.46 (0.072); Change from Baseline in Stool Consistency, Difference from Placebo (3 mg, Week 7, ITT Population): 0.60; Change from Baseline in Stool Consistency, LS Mean (SE) (3 mg, Week 7, ITT Population): 1.49 (0.074); Change from Baseline in Stool Consistency, Mean (SD) (3 mg, Week 7, ITT Population): 1.58 (1.447); Change from Baseline in Stool Consistency, Difference from Placebo [2]: 0.61; Change from Baseline in Stool Consistency, LS Mean (SE) [2]: 1.50 (0.075); Change from Baseline in Stool Consistency, Mean (SD) [2]: 1.60 (1.452); Change from Baseline in Stool Consistency, Difference from Placebo [3]: 0.67; Change from Baseline in Stool Consistency, LS Mean (SE) [3]: 1.58 (0.072); Change from Baseline in Stool Consistency, Difference from Placebo (3 mg, Week 8, ITT Population): 0.66; Change from Baseline in Stool Consistency, LS Mean (SE) (3 mg, Week 8, ITT Population): 1.60 (0.075); Change from Baseline in Stool Consistency, Mean (SD) (3 mg, Week 8, ITT Population): 1.71 (1.496); Change from Baseline in Stool Consistency, Difference from Placebo [4]: 0.67; Change from Baseline in Stool Consistency, LS Mean (SE) [4]: 1.60 (0.075); Change from Baseline in Stool Consistency, Mean (SD) [4]: 1.71 (1.500); Change from Baseline in Stool Consistency, Difference from Placebo [5]: 0.68; Change from Baseline in Stool Consistency, LS Mean (SE) [5]: 1.55 (0.073); Change from Baseline in Stool Consistency, Difference from Placebo (3 mg, Week 9, ITT Population): 0.68; Change from Baseline in Stool Consistency, LS Mean (SE) (3 mg, Week 9, ITT Population): 1.57 (0.075); Change from Baseline in Stool Consistency, Mean (SD) (3 mg, Week 9, ITT Population): 1.68 (1.468); Change from Baseline in Stool Consistency, Difference from Placebo [6]: 0.66; Change from Baseline in Stool Consistency, LS Mean (SE) [6]: 1.57 (0.076); Change from Baseline in Stool Consistency, Mean (SD) [6]: 1.68 (1.468); Change from Baseline in Stool Consistency, Difference from Placebo [7]: 0.62; Change from Baseline in Stool Consistency, LS Mean (SE) [7]: 1.52 (0.073); Change from Baseline in Stool Consistency, Difference from Placebo (3 mg, Week 10, ITT Population): 0.61; Change from Baseline in Stool Consistency, LS Mean (SE) (3 mg, Week 10, ITT Population): 1.54 (0.075); Change from Baseline in Stool Consistency, Mean (SD) (3 mg, Week 10, ITT Population): 1.65 (1.539); Change from Baseline in Stool Consistency, Difference from Placebo [8]: 0.61; Change from Baseline in Stool Consistency, LS Mean (SE) [8]: 1.54 (0.076); Change from Baseline in Stool Consistency, Mean (SD) [8]: 1.65 (1.548); Change from Baseline in Stool Consistency, Difference from Placebo [9]: 0.55; Change from Baseline in Stool Consistency, LS Mean (SE) [9]: 1.48 (0.073); Change from Baseline in Stool Consistency, Difference from Placebo (3 mg, Week 11, ITT Population): 0.54; Change from Baseline in Stool Consistency, LS Mean (SE) (3 mg, Week 11, ITT Population): 1.50 (0.075); Change from Baseline in Stool Consistency, Mean (SD) (3 mg, Week 11, ITT Population): 1.58 (1.598); Change from Baseline in Stool Consistency, Difference from Placebo [10]: 0.54; Change from Baseline in Stool Consistency, LS Mean (SE) [10]: 1.51 (0.076); Change from Baseline in Stool Consistency, Mean (SD) [10]: 1.59 (1.595); Change from Baseline in Stool Consistency, Difference from Placebo [11]: 0.57; Change from Baseline in Stool Consistency, LS Mean (SE) [11]: 1.57 (0.073); Change from Baseline in Stool Consistency, Difference from Placebo (3 mg, Week 12, ITT Population): 0.58; Change from Baseline in Stool Consistency, LS Mean (SE) (3 mg, Week 12, ITT Population): 1.60 (0.075); Change from Baseline in Stool Consistency, Mean (SD) (3 mg, Week 12, ITT Population): 1.69 (1.480); Change from Baseline in Stool Consistency, Difference from Placebo [12]: 0.58; Change from Baseline in Stool Consistency, LS Mean (SE) [12]: 1.61 (0.076); Change from Baseline in Stool Consistency, Mean (SD) [12]: 1.70 (1.476); Change from Baseline in Stool Consistency, Difference from Placebo [13]: 0.63; Change from Baseline in Stool Consistency, LS Mean (SE) [13]: 1.48 (0.058); Change from Baseline in Stool Consistency, Difference from Placebo [14]: 0.62; Change from Baseline in Stool Consistency, LS Mean (SE) [14]: 1.49 (0.060); Change from Baseline in Stool Consistency, Difference from Placebo [15]: 0.62; Change from Baseline in Stool Consistency, LS Mean (SE) [15]: 1.50 (0.061); Change from Baseline in Stool Consistency, Difference from Placebo [16]: 0.09; Change from Baseline in Stool Consistency, LS Mean (SE) [16]: 1.08 (0.070); Change from Baseline in Stool Consistency, Mean (SD) [16]: 1.03 (1.408); Change from Baseline in Stool Consistency, Difference from Placebo [17]: 0.09; Change from Baseline in Stool Consistency, LS Mean (SE) [17]: 1.08 (0.071); Change from Baseline in Stool Consistency, Mean (SD) [17]: 1.04 (1.410); Change from Baseline in Stool Consistency, Difference from Placebo [18]: 0.09; Change from Baseline in Stool Consistency, LS Mean (SE) [18]: 1.08 (0.072); Change from Baseline in Stool Consistency, Mean (SD) [18]: 1.04 (1.414); Change from Baseline in Stool Consistency, Difference from Placebo [19]: 0.07; Change from Baseline in Stool Consistency, LS Mean (SE) [19]: 1.06 (0.072); Change from Baseline in Stool Consistency, Mean (SD) [19]: 1.04 (1.393); Change from Baseline in Stool Consistency, Difference from Placebo [20]: 0.06; Change from Baseline in Stool Consistency, LS Mean (SE) [20]: 1.07 (0.074); Change from Baseline in Stool Consistency, Mean (SD) [20]: 1.06 (1.354); Change from Baseline in Stool Consistency, Difference from Placebo (6 mg, Post-Treatment Week 14, ITT Population-Excluding Duplicate Patients): 0.06
